From ChEMBL document CHEMBL1142199, “Caenorhabditis elegans as a model to determine fitness of antibiotic-resistant Salmonella enterica serovar typhimurium” (2007)
≈ marks a conversion by molar mass, not a printed value. Values belong to the molecule of their own block, whether it stands above or below them.

Legend:
Format in all cases: functional, Salmonella enterica subsp. enterica serovar Typhimurium
Salmonella typhimurium [1] = assay: Antimicrobial activity against Salmonella enterica serovar Typhimurium DA8326 in Caenorhabditis elegans
Salmonella typhimurium [2] = assay: Antimicrobial activity against Salmonella enterica serovar Typhimurium DA8340 in Caenorhabditis elegans
Salmonella typhimurium [3] = assay: Antimicrobial activity against Salmonella enterica serovar Typhimurium DA8325 in Caenorhabditis elegans
Salmonella typhimurium [4] = assay: Antimicrobial activity against Salmonella enterica serovar Typhimurium JB1855 in Caenorhabditis elegans
Salmonella typhimurium [5] = assay: Antimicrobial activity against Salmonella enterica serovar Typhimurium JB1850 in Caenorhabditis elegans
Salmonella typhimurium [6] = assay: Antimicrobial activity against Salmonella enterica serovar Typhimurium SMP973 in Caenorhabditis elegans
Salmonella typhimurium [7] = assay: Antimicrobial activity against Salmonella enterica serovar Typhimurium SMP972 in Caenorhabditis elegans
Salmonella typhimurium [8] = assay: Antimicrobial activity against Salmonella enterica serovar Typhimurium JB393 in Caenorhabditis elegans
Salmonella typhimurium [9] = assay: Antimicrobial activity against Salmonella enterica serovar Typhimurium SMP816 in Caenorhabditis elegans
Salmonella typhimurium [10] = assay: Antimicrobial activity against Salmonella enterica serovar Typhimurium SMP807 in Caenorhabditis elegans
Salmonella typhimurium [11] = assay: Antimicrobial activity against Salmonella enterica serovar Typhimurium JB127 in Caenorhabditis elegans

MIC (Salmonella typhimurium [1]): > 1020 µg/mL
MIC (Salmonella typhimurium [2]): > 1020 µg/mL
MIC (Salmonella typhimurium [3]): > 1020 µg/mL
Structure (SMILES): CCCCC[C@H](CC(=O)NO)C(=O)N[C@H](C(=O)N1CCC[C@H]1CO)C(C)C [ACTINONIN]

MIC (Salmonella typhimurium [4]): > 1020 µg/mL
MIC (Salmonella typhimurium [5]): > 1020 µg/mL
Structure (SMILES): C/C(=C\C(=O)OCCCCCCCCC(=O)O)C[C@@H]1OC[C@H](C[C@@H]2O[C@H]2[C@@H](C)[C@H](C)O)[C@@H](O)[C@H]1O [MUPIROCIN]

Structure (SMILES): CCn1cc(C(=O)O)c(=O)c2ccc(C)nc21 [NALIDIXIC ACID]
MIC (Salmonella typhimurium [6]): > 256 µg/mL
MIC (Salmonella typhimurium [7]): 64 µg/mL (≈ 276 µM)

MIC (Salmonella typhimurium [8]): 2400 µg/mL (≈ 4640 µM)
Structure (SMILES): CC(=O)O[C@H]1C[C@@]2(C)[C@@H](C[C@@H](O)[C@H]3[C@@]4(C)CC[C@@H](O)[C@@H](C)[C@@H]4CC[C@@]32C)/C1=C(\CCC=C(C)C)C(=O)O [FUSIDIC ACID]

MIC (Salmonella typhimurium [9]): > 256 µg/mL
MIC (Salmonella typhimurium [10]): > 256 µg/mL
Structure (SMILES): CO[C@H]1/C=C/O[C@@]2(C)Oc3c(C)c(O)c4c(O)c(c(/C=N/N5CCN(C)CC5)c(O)c4c3C2=O)NC(=O)/C(C)=C\C=C\[C@H](C)[C@H](O)[C@@H](C)[C@@H](O)[C@@H](C)[C@H](OC(C)=O)[C@@H]1C [RIFAMPIN]

MIC (Salmonella typhimurium [11]): > 1020 µg/mL
Structure (SMILES): CN[C@@H]1[C@H](O[C@H]2[C@H](O[C@H]3[C@H](O)[C@@H](O)[C@H](N=C(N)N)[C@@H](O)[C@@H]3N=C(N)N)O[C@@H](C)[C@]2(O)C=O)O[C@@H](CO)[C@H](O)[C@H]1O [STREPTOMYCIN]
